{
  "source": "patent US10472341B2",
  "about": "“Bicyclic tetrahydrothiazepine derivatives useful for the treatment of neoplastic and/or infectious diseases” (APEIRON BIOLOGICS AG, priority 2015, dated 2019)",
  "system": "NK cells & K562 leukemia cells",
  "assay": "NK cells alone or in co-culture with K562 leukemia cells: IFN-gamma, TNF-alpha, granzyme, CD25+CD69+",
  "assay_type": "cell-based, human",
  "description": "Isolated PBMCs, NK cells or CD8 positive cells were plated in Xvivo medium at 1.5*10^5 cells per in 96 well culture plates in the presence of 0.3*10^4 tumor cells where indicated. Cytokine secretion was determined by ELISA, immune cell activation (using Beckman-Coulter Abs CD25-PC5, CD69-PC7), cell viability and numbers by flow cytometry (Beckman-Coulter FC500 or Gallios) using 7-AAD exclusion as criterion for living cells. One of the physiological functions of NK cells in anti-tumor immunity is the recognition and destruction of tumor cells that have a low expression of MHC-molecules, thus avoiding recognition by CD8 T cells. Downregulation of MHC molecules is often actively mediated by an infecting virus or occurs during development of malignant neoplasms. The […] leukemia cell line expresses only very low amounts of MHC-molecules and thus is often used as a model system to investigate anti-tumor NK cell reactivity. NK cells were isolated from PBMCs and were incubated with and without compounds, either alone or in co-culture with K562 leukemia cells.",
  "data": [
    {"smiles": "CCCCNC(=O)c1ccc2c(c1)N(Cc1ccc(OC(F)(F)F)cc1)C(=O)[C@@H](N)CS2(=O)=O.Cl", "note": "[Example 67, (3R)-3-amino-N-butyl-1,1,4-trioxo-5-{[4-(trifluoromethoxy)phenyl]methyl}-2,3,4,5-tetrahydro-1λ^6,5-benzothiazepine-7-carboxamide hydrochloride]", "values": [
      {"measurement": "IFN-gamma [ng/ml] Avg", "setting": "0.03 μM, NK cells & K562", "value": 7.47, "unit": "ng/mL"},
      {"measurement": "TNF-alpha [ng/ml] avg", "setting": "0.03 μM, NK cells & K562", "value": 0.21, "unit": "ng/mL"},
      {"measurement": "IFN-gamma [ng/ml] Avg", "setting": "0.03 μM, NK cells only", "value": "below"},
      {"measurement": "TNF-alpha [ng/ml] avg", "setting": "0.03 μM, NK cells only", "value": "below"},
      {"measurement": "IFN-gamma [ng/ml] Avg", "setting": "0.1 μM, NK cells & K562", "value": 10.14, "unit": "ng/mL"},
      {"measurement": "TNF-alpha [ng/ml] avg", "setting": "0.1 μM, NK cells & K562", "value": 0.26, "unit": "ng/mL"},
      {"measurement": "IFN-gamma [ng/ml] Avg", "setting": "0.1 μM, NK cells only", "value": "below"},
      {"measurement": "TNF-alpha [ng/ml] avg", "setting": "0.1 μM, NK cells only", "value": "below"},
      {"measurement": "IFN-gamma [ng/ml] Avg", "setting": "0.3 μM, NK cells & K562", "value": 11.24, "unit": "ng/mL"},
      {"measurement": "TNF-alpha [ng/ml] avg", "setting": "0.3 μM, NK cells & K562", "value": 0.33, "unit": "ng/mL"},
      {"measurement": "IFN-gamma [ng/ml] Avg", "setting": "0.3 μM, NK cells only", "value": "below"},
      {"measurement": "TNF-alpha [ng/ml] avg", "setting": "0.3 μM, NK cells only", "value": "below"},
      {"measurement": "IFN-gamma [ng/ml] Avg", "setting": "1 μM, NK cells & K562", "value": 16.40, "unit": "ng/mL"},
      {"measurement": "TNF-alpha [ng/ml] avg", "setting": "1 μM, NK cells & K562", "value": 0.57, "unit": "ng/mL"},
      {"measurement": "IFN-gamma [ng/ml] Avg", "setting": "1 μM, NK cells only", "value": "below"},
      {"measurement": "TNF-alpha [ng/ml] avg", "setting": "1 μM, NK cells only", "value": "below"},
      {"measurement": "IFN-gamma [ng/ml] Avg", "setting": "3 μM, NK cells & K562", "value": 17.80, "unit": "ng/mL"},
      {"measurement": "TNF-alpha [ng/ml] avg", "setting": "3 μM, NK cells & K562", "value": 0.58, "unit": "ng/mL"},
      {"measurement": "IFN-gamma [ng/ml] Avg", "setting": "3 μM, NK cells only", "value": "below"},
      {"measurement": "TNF-alpha [ng/ml] avg", "setting": "3 μM, NK cells only", "value": "below"},
      {"measurement": "IFN-gamma [ng/ml] Avg", "setting": "10 μM, NK cells & K562", "value": 22.65, "unit": "ng/mL"},
      {"measurement": "TNF-alpha [ng/ml] avg", "setting": "10 μM, NK cells & K562", "value": 0.80, "unit": "ng/mL"},
      {"measurement": "IFN-gamma [ng/ml] Avg", "setting": "10 μM, NK cells only", "value": "below"},
      {"measurement": "TNF-alpha [ng/ml] avg", "setting": "10 μM, NK cells only", "value": "below"},
      {"measurement": "IFN-gamma [ng/ml] Avg", "setting": "30 μM, NK cells & K562", "value": 19.98, "unit": "ng/mL"},
      {"measurement": "TNF-alpha [ng/ml] avg", "setting": "30 μM, NK cells & K562", "value": 0.79, "unit": "ng/mL"},
      {"measurement": "IFN-gamma [ng/ml] Avg", "setting": "30 μM, NK cells only", "value": "below"},
      {"measurement": "TNF-alpha [ng/ml] avg", "setting": "30 μM, NK cells only", "value": "below"},
      {"measurement": "CD25+CD69+", "setting": "NK cells & K562, 0.03 μM", "value": 6.90, "unit": "% gated"},
      {"measurement": "Granzyme", "setting": "NK cells & K562, 0.03 μM", "value": 0.65, "unit": "ng/mL"},
      {"measurement": "CD25+CD69+", "setting": "NK cells & K562, 0.1 μM", "value": 8.44, "unit": "% gated"},
      {"measurement": "Granzyme", "setting": "NK cells & K562, 0.1 μM", "value": 0.93, "unit": "ng/mL"},
      {"measurement": "CD25+CD69+", "setting": "NK cells & K562, 0.3 μM", "value": 9.68, "unit": "% gated"},
      {"measurement": "Granzyme", "setting": "NK cells & K562, 0.3 μM", "value": 1.01, "unit": "ng/mL"},
      {"measurement": "CD25+CD69+", "setting": "NK cells & K562, 1 μM", "value": 18.80, "unit": "% gated"},
      {"measurement": "Granzyme", "setting": "NK cells & K562, 1 μM", "value": 1.47, "unit": "ng/mL"},
      {"measurement": "CD25+CD69+", "setting": "NK cells & K562, 3 μM", "value": 21.66, "unit": "% gated"},
      {"measurement": "Granzyme", "setting": "NK cells & K562, 3 μM", "value": 1.62, "unit": "ng/mL"},
      {"measurement": "CD25+CD69+", "setting": "NK cells & K562, 10 μM", "value": 31.98, "unit": "% gated"},
      {"measurement": "Granzyme", "setting": "NK cells & K562, 10 μM", "value": 2.52, "unit": "ng/mL"},
      {"measurement": "CD25+CD69+", "setting": "NK cells & K562, 30 μM", "value": 35.89, "unit": "% gated"},
      {"measurement": "Granzyme", "setting": "NK cells & K562, 30 μM", "value": 2.43, "unit": "ng/mL"},
      {"measurement": "production of IFN-gamma and TNF-alpha", "setting": "NK cells in co-culture with K562 leukemia cells", "value": "enhanced production of both cytokines specifically upon tumor cell contact"},
      {"measurement": "enhancement of IFN-gamma and TNF-alpha production", "setting": "NK cells in the absence of tumor cells", "value": "such effect was not detected in the absence of tumor cells"},
      {"measurement": "CD25+CD69+", "setting": "NK cells only, 0.03 μM", "value": 0.05, "unit": "% gated"},
      {"measurement": "Granzyme", "setting": "NK cells only, 0.03 μM", "value": 0.08, "unit": "ng/mL"},
      {"measurement": "CD25+CD69+", "setting": "NK cells only, 0.1 μM", "value": 0.06, "unit": "% gated"},
      {"measurement": "Granzyme", "setting": "NK cells only, 0.1 μM", "value": 0.09, "unit": "ng/mL"},
      {"measurement": "CD25+CD69+", "setting": "NK cells only, 0.3 μM", "value": 0.15, "unit": "% gated"},
      {"measurement": "Granzyme", "setting": "NK cells only, 0.3 μM", "value": 0.08, "unit": "ng/mL"},
      {"measurement": "CD25+CD69+", "setting": "NK cells only, 1 μM", "value": 0.39, "unit": "% gated"},
      {"measurement": "Granzyme", "setting": "NK cells only, 1 μM", "value": 0.06, "unit": "ng/mL"},
      {"measurement": "CD25+CD69+", "setting": "NK cells only, 3 μM", "value": 0.47, "unit": "% gated"},
      {"measurement": "Granzyme", "setting": "NK cells only, 3 μM", "value": 0.12, "unit": "ng/mL"},
      {"measurement": "CD25+CD69+", "setting": "NK cells only, 10 μM", "value": 0.95, "unit": "% gated"},
      {"measurement": "Granzyme", "setting": "NK cells only, 10 μM", "value": 0.15, "unit": "ng/mL"},
      {"measurement": "CD25+CD69+", "setting": "NK cells only, 30 μM", "value": 1.24, "unit": "% gated"},
      {"measurement": "Granzyme", "setting": "NK cells only, 30 μM", "value": 0.25, "unit": "ng/mL"}
    ]}
  ]
}
